According to US11746116B2, “Antibiotic resistance breakers” (KING'S COLLEGE LONDON, priority 2017, dated 2023):
≈ marks a conversion by molar mass, not a printed value. Read-outs that look alike come from different tables or passages of the source.

Assays:
[1] = tested on: multidrug resistant strains; assay: Reserpine growth assay in several multidrug resistant strains (FIG. 27); format: cell-based; settings: compared to ML-83-009 or levofloxacin
Procedure: Reserpine was added at a final concentration of 10 μg/mL (made up at 40 μg/mL in TSB, 50 μL per well). The bacteria were added at an OD of 0.01 in TSB (100 μL/well). The plate was a normal clear plate as used for MICs. OD was read every 30 minutes for 9 hours (the literature states 7 hours, but this is strain-dependent).

[2] = tested on: VRE12201; assay: MIC, microdilution broth method; format: cell-based, Enterococcus faecalis
[3] = tested on: EMRSA15; assay: MIC, microdilution broth method; format: cell-based, Staphylococcus aureus; settings: for MIC, EMRSA15: in µg/mL; for MIC: Staphylococcus aureus, Staphylococcus aureus (EMRSA15), read-out: MIC
[4] = tested on: PA13437; assay: MIC, microdilution broth method; format: cell-based
[5] = tested on: KP13368; assay: MIC, microdilution broth method; format: cell-based
[6] = tested on: AYE; assay: MIC, microdilution broth method; format: cell-based, Acinetobacter baumannii
[7] = tested on: VSE775; assay: MIC, microdilution broth method; format: cell-based, Enterococcus faecalis; parameters: MIC, VSE775: unit not given beside the values
[8] = tested on: Ab17978; assay: MIC, microdilution broth method; format: cell-based
[9] = tested on: VRE12204; assay: MIC, microdilution broth method; format: cell-based, Enterococcus faecium; settings: ESKAPE panel, Gram-positive; in µg/mL
[10] = tested on: extended panel of MDR strains with known multiple target mutations; format: cell-based
[11] = tested on: M6; assay: MIC, microdilution broth method; format: cell-based
[12] = tested on: PA01; assay: MIC, microdilution broth method; format: cell-based, Pseudomonas aeruginosa
[13] = tested on: EMRSA16; assay: MIC, microdilution broth method; format: cell-based, Staphylococcus aureus; settings: for MIC, EMRSA16: in µg/mL
[14] = tested on: MSSA9144; assay: MIC, microdilution broth method; format: cell-based, Staphylococcus aureus
[15] = tested on: EC12923; assay: MIC, microdilution broth method; format: cell-based
[16] = tested on: SA8; assay: MIC, extended Gram-positive panel; format: cell-based, S. aureus; settings: S. aureus SA8; gyrA, 84:S => L; grlA, 80:S => F
[17] = tested on: SE1; format: cell-based, S. epidermidis; settings: S. epidermidis SE1; in µg/mL
[18] = tested on: EF2; assay: MIC, extended Gram-positive panel; format: cell-based, E.faecium; settings: E.faecium EF2; in µg/mL
[19] = tested on: SA1; assay: MIC, extended Gram-positive panel; format: cell-based, S. aureus; settings: S. aureus SA1; gyrA, 84:S => L; grlA, 80:S => F
[20] = tested on: EF1; assay: MIC, extended Gram-positive panel; format: cell-based, E.faecalis; settings: E.faecalis EF1
[21] = tested on: SA5; format: cell-based, S. aureus; settings: S. aureus SA5; gyrA, 84:S => L; grlA, 80:S => F
[22] = tested on: SA7; assay: MIC, extended Gram-positive panel; format: cell-based, S. aureus; settings: S. aureus SA7; gyrA, 84:S => L; grlA, 80:S => F
[23] = tested on: SA9; format: cell-based, S. aureus; settings: S. aureus SA9; gyrA, 84:S => L; grlA, 80:S => F
[24] = tested on: SA2; assay: MIC, extended Gram-positive panel; format: cell-based, S. aureus; settings: S. aureus SA2
[25] = tested on: SA3; format: cell-based, S. aureus; settings: S. aureus SA3; gyrA, 84:S => L; grlA, 80:S => F
[26] = tested on: SA6; assay: MIC, extended Gram-positive panel; format: cell-based, S. aureus; settings: S. aureus SA6; gyrA, 84:S => V; grlA, 80:S => F
[27] = tested on: SH1; assay: MIC, extended Gram-positive panel; format: cell-based, S. haemolyticus; settings: S. haemolyticus SH1
[28] = tested on: SA4; assay: MIC, extended Gram-positive panel; format: cell-based, S. aureus; settings: S. aureus SA4; gyrA, 84:S => L; grlA, 80:S => F
[29] = ESKAPE panel, Gram-positive, in µg/mL
[30] = ESKAPE panel, Gram-negative, in µg/mL

Q: Which results are given for C[C@H]1COc2c(N3CC[C@@H](Nc4ncccn4)C3)c(F)cc3c(=O)c(C(=O)O)cn1c23 [KSN-L22]?
A: efflux from the bacteria (reserpine growth assay) [1]: reduced efflux; MIC, VRE12201 [2, 29]: 0.06; MIC ([2]; Enterococcus faecalis, Enterococcus (VRE12201), Gram-Positive, read-out: MIC): 0.06 µg/mL (≈ 0.141 µM); MIC, EMRSA15 ([3]; EMRSA15 (Table 16, role of the terminal pyrimidine ring)): 0.5-1; MIC, EMRSA15 ([3]; ESKAPE panel, Gram-positive): 0.5; MIC ([3]; Gram-Positive (Table 14)): 0.5 µg/mL (≈ 1.18 µM); MIC ([3]; Table 12): 0.5 to 1 µg/mL (≈ 1.18 to 2.35 µM); MIC, PA13437 ([4]; ESKAPE panel, Gram-negative): > 32 µg/mL; MIC, KP13368 ([5]; ESKAPE panel, Gram-negative): 4 µg/mL (≈ 9.4 µM); MIC ([5]; Klebsiella pneumoniae (KP13368), Gram-Negative, read-out: MIC): 4 µg/mL (≈ 9.4 µM); MIC ([6]; Acinetobacter baumannii (AYE), Gram-Negative, read-out: MIC): 4 µg/mL (≈ 9.4 µM); MIC, AYE [6, 30]: 4; MIC, VSE775 ([7]; ESKAPE panel, Gram-positive): 0.06; MIC ([7]; Enterococcus faecalis, Enterococcus (VRE775), Gram-Positive, read-out: MIC): 0.06 µg/mL (≈ 0.141 µM); MIC ([8]; Acinetobacter baumannii): 0.125 µg/mL (≈ 0.294 µM); MIC, Ab17978 [8, 30]: 0.125; MIC, VRE12204 [9]: 1; MIC ([10]; E. faecalis EF 602): 0.25 µg/mL (≈ 0.588 µM); MIC ([10]; E. faecium EF 205): 0.12 µg/mL (≈ 0.282 µM); MIC ([10]; S. aureus SA 046, gyrA, 84:S => L, grlA, 80:S => F): 1 µg/mL (≈ 2.35 µM); MIC ([10]; S. aureus SA 105, gyrA, 84:S => L, grlA, 80:S => F): 1 µg/mL (≈ 2.35 µM); MIC ([10]; S. aureus SA 215, gyrA, 84:S => L, grlA, 80:S => F): 1 µg/mL (≈ 2.35 µM); MIC ([10]; S. aureus SA 275, gyrA, 84:S => V, grlA, 80:S => F): 1 µg/mL (≈ 2.35 µM); MIC ([10]; S. aureus SA 318, gyrA, 84:S => L, grlA, 80:S => F): 1 µg/mL (≈ 2.35 µM); MIC ([10]; S. aureus SA 388, gyrA, 84:S => L, grlA, 80:S => F): 1 µg/mL (≈ 2.35 µM); MIC, M6 [11, 30]: 1; MIC ([11]; Klebsiella pneumoniae (M6), Gram-Negative, read-out: MIC): 1 µg/mL (≈ 2.35 µM); MIC, PA01 [12, 30]: 4; MIC ([12]; Pseudomonas aeruginosa (PA01), Gram-Negative, read-out: MIC): 4 µg/mL (≈ 9.4 µM); MIC, EMRSA16 ([13]; EMRSA16 (Table 16, role of the terminal pyrimidine ring)): 1; MIC, EMRSA16 ([13]; ESKAPE panel, Gram-positive): 1; MIC ([13]; S. aureus EMRSA16, gyrA, 84:S => L, grlA, 80:S => F (Table 11)): 1; MIC ([13]; Staphylococcus aureus (EMRSA16), Gram-Positive (Table 14)): 1 µg/mL (≈ 2.35 µM); MIC ([13]; Staphylococcus aureus (EMRSA16), Table 12, read-out: MIC): 1 µg/mL (≈ 2.35 µM); MIC, MSSA9144 [14, 29]: ≤0.03; MIC ([14]; Staphylococcus aureus (MSSA9144), Gram-Positive, read-out: MIC): ≤ 0.03 µg/mL; MIC, EC12923 [15, 30]: 0.5; MIC ([15]; Escherichia coli (EC12923), Gram-Negative, read-out: MIC): 0.5 µg/mL (≈ 1.18 µM)

Q: What does the source list for O=C(O)c1cn(C2CC2)c2cc(N3CCN(Cc4cccc5ccccc45)CC3)c(F)cc2c1=O [ML-77-005]?
A: MIC [16]: 2 µg/mL (≈ 4.24 µM); MIC ([2]; VRE12201, in µg/mL): 0.5; MIC [17]: 0.25-2; MIC [18]: 2; MIC ([4]; PA13437, +PMBN): 32 µg/mL (≈ 67.9 µM); MIC [19]: 2 µg/mL (≈ 4.24 µM); MIC [20]: 2 µg/mL (≈ 4.24 µM); MIC [21]: 2 µg/mL (≈ 4.24 µM); MIC [22]: 2 µg/mL (≈ 4.24 µM); MIC ([8]; Ab17978, +PMBN): −.12-0.25; MIC ([8]; Ab17978, Normal (no PMBN), in µg/mL): 4; MIC [23]: 2 µg/mL (≈ 4.24 µM); MIC [24]: 0.5 µg/mL (≈ 1.06 µM); MIC ([11]; M6, +PMBN, in µg/mL): 0.5; MIC ([11]; M6, Normal (no PMBN), in µg/mL): 32-64; MIC [25]: 2 µg/mL (≈ 4.24 µM); MIC ([12]; PA01, +PMBN, in µg/mL): <0.12-0.25; MIC [26]: 2 µg/mL (≈ 4.24 µM); MIC [27]: 4 µg/mL (≈ 8.48 µM); MIC [28]: 2 µg/mL (≈ 4.24 µM); MIC ([14]; MSSA9144, in µg/mL): 0.25-8
